Experiment: xn = mol fraction of the nth substance listed
Conditions: 100 kPa

| Structure (SMILES) | electrical conductivity (293.15 K, x2 = 0.333) [S/m] | speed of sound (293.15 K, x2 = 0.333) [m/s] | electrical conductivity (298.15 K, x2 = 0.333) [S/m] | speed of sound (298.15 K, x2 = 0.333) [m/s] | electrical conductivity (313.15 K, x2 = 0.333) [S/m] | speed of sound (313.15 K, x2 = 0.333) [m/s] | viscosity (313.15 K, x2 = 0.333) [mPa·s] | electrical conductivity (318.15 K, x2 = 0.333) [S/m] | speed of sound (318.15 K, x2 = 0.333) [m/s] | viscosity (318.15 K, x2 = 0.333) [mPa·s] | electrical conductivity (323.15 K, x2 = 0.333) [S/m] | speed of sound (323.15 K, x2 = 0.333) [m/s] | viscosity (323.15 K, x2 = 0.333) [mPa·s] | electrical conductivity (333.15 K, x2 = 0.333) [S/m] | speed of sound (333.15 K, x2 = 0.333) [m/s] | viscosity (333.15 K, x2 = 0.333) [mPa·s] | further results |
| --- | --- | --- | --- | --- | --- | --- | --- | --- | --- | --- | --- | --- | --- | --- | --- | --- | --- |
| O=C(O)CCl + CCCC[N+](CCCC)(CCCC)CCCC.O=S(=O)([O-])O | 0.012 | 1539.9 | 0.0189 | 1523.1 | 0.0508 | 1475.5 | 176.3 | 0.0669 | 1460.9 | 132.2 | 0.0861 | 1446.5 | 101.9 | 0.133 | 1418.6 | 64.29 | electrical conductivity (293.15 K, x2 = 0.5): 0.0017 S/m; speed of sound (293.15 K, x2 = 0.5): 1623.8 m/s; electrical conductivity (298.15 K, x2 = 0.5): 0.0032 S/m; speed of sound (298.15 K, x2 = 0.5): 1594.7 m/s; electrical conductivity (303.15 K, x2 = 0.5): 0.0053 S/m; speed of sound (303.15 K, x2 = 0.5): 1569.4 m/s; electrical conductivity (308.15 K, x2 = 0.5): 0.0037 S/m; speed of sound (308.15 K, x2 = 0.5): 1547 m/s; electrical conductivity (318.15 K, x2 = 0.5): 0.0143 S/m; speed of sound (318.15 K, x2 = 0.5): 1509 m/s; viscosity (318.15 K, x2 = 0.5): 769 mPa·s; electrical conductivity (323.15 K, x2 = 0.5): 0.0226 S/m; speed of sound (323.15 K, x2 = 0.5): 1492.3 m/s; viscosity (323.15 K, x2 = 0.5): 546 mPa·s; electrical conductivity (328.15 K, x2 = 0.333): 0.108 S/m; speed of sound (328.15 K, x2 = 0.333): 1432.5 m/s; viscosity (328.15 K, x2 = 0.333): 81.5 mPa·s; electrical conductivity (328.15 K, x2 = 0.5): 0.0306 S/m; speed of sound (328.15 K, x2 = 0.5): 1476.3 m/s; viscosity (328.15 K, x2 = 0.5): 396 mPa·s |
| O=C(O)CCl + CCC[N+](CCC)(CCC)CCC.[Br-] | 0.0435 | 1550.2 | 0.0673 | 1535.1 | 0.177 | 1491.4 | 45.76 | 0.228 | 1477.4 | 34.88 | 0.284 | 1463.4 | 27.18 | 0.407 | 1436.1 | 17.67 | viscosity (293.15 K, x2 = 0.333): 178.6 mPa·s; viscosity (298.15 K, x2 = 0.333): 119.4 mPa·s; electrical conductivity (303.15 K, x2 = 0.333): 0.0981 S/m; speed of sound (303.15 K, x2 = 0.333): 1520.3 m/s; viscosity (303.15 K, x2 = 0.333): 84.3 mPa·s |

— a compilation of properties of binary mixtures (doi:10.1016/j.molliq.2021.118393)
